Test results reported in patent US10207988B2, “Methods and compositions for treatment of cancer and autoimmune disease” (THE JACKSON LABORATORY, priority 2011, dated 2019).

System: primary mouse splenic B-cells (B220+ IgM+)
Assay: radiosensitization of primary mouse B-cells by DIDS (Trypan blue dye exclusion)
Type: cell-based
Conditions: 2.5 Gy gamma irradiation combined with DIDS, starting at 50 micromolar, 24 hours after irradiation
Procedure: Primary mouse splenic B-cells were isolated from normal, wild-type C57BL/6J mice as described in Example 1 and sorted with magnetic beads (Miltenyi) to enrich B220+ IgM+ B-cells. Purified B-cells were cultured in complete RPMI-1640 medium with 10% FBS with 0, 50, 100, or 150 micromolar DIDS. Cells were then subjected to either 0 (FIG. 14, filled circles) or 2.5 Gy (=250 rads; FIG. 14, open circles) of gamma irradiation in a Cs137 irradiator. Cell viability was subsequently scored for each condition and plotted relative to the no DIDS condition by manual cytometry using a hemacytometer and Trypan blue dye exclusion 24 hours after irradiation. The fraction of viable cells is reported normalized to the corresponding 0 μM DIDS condition. Error bars represent the standard error of the mean (S.E.M) from three independent experiments.

In the case of `O=S(=O)([O-])c1cc(N=C=S)ccc1/C=C/c1ccc(N=C=S)cc1S(=O)(=O)[O-].[Na+].[Na+]` [DIDS, 4,4′diisothiocyanostilbene-2,2′-disulfonic acid], the “fraction of viable cells” value is reported as “reduces viability significantly”.
